Experimental data taken from patent publication US9416115B2, “Fused heterocyclic compounds as ion channel modulators” (Gilead Sciences, Inc., priority 2013, dated 2016).

Tested on: Ischemia-Induced ST Segment Elevation in Anesthetized Rabbits
Experiment: Ischemia-induced ST segment elevation in anesthetized rabbits
Type: in vivo, New Zealand rabbits
Conditions: iv infusion; 15 min LAD ischemia after 30 min of compound administration
Method: This study was undertaken to determine the anti-ischemic effects of compounds of the present disclosure in an in vivo rabbit model.
Female New Zealand rabbits (3.0-4.0 kg) were purchased from Western Oregon Rabbitry. Animals were housed on a 12-h light and dark cycle and received standard laboratory chow and water. All experiments were performed in accordance with the Guide for the Care and Use of Laboratory Animals published by The National Research Council and with the experimental protocol approved by the Institutional Animal Care Committee of Gilead Sciences, Inc.
Rabbits were anesthetized with ketamine (35 mg/kg) and xylazine (5 mg/kg) intramuscular injection (im). A tracheotomy was performed and the trachea was intubated with an endotracheal tube. The animal was ventilated with room air supplemented with oxygen using a pressure control animal ventilator (Kent Scientific Corp., Torrington, Conn.) at a respiratory rate of 40 strokes/min and peak inspiration pressure of 10 mmH2O, which was adjusted to keep blood gases and pH within the physiological range (iSTAT clinic analyzer, Heska Corp.; Waukesha, Wis.). The left femoral artery was cannulated for the measurement of blood pressure (BP). Blood samples were also withdrawn from femoral artery. The right external jugular vein was cannulated for drug/vehicle administration. Needle electrodes were inserted subcutaneously into the limbs for recording of the surface electrocardiogram (ECG).
The heart was exposed via an incision in the 4th intercostal space (4th and/or 5th ribs were cut for a clear surgical vision). The chest was opened and a pericardial cradle was formed using 4 retractors. A coronary artery occluder, comprised of a snare made of 5 cm PE-10 tubing with a 6-0 Prolene polypropylene suture in it, was placed loosely around the left anterior descending artery (LAD) at its origin. Two unipolar electrodes, made with teflon coated silver wire attached to a small patch of filter paper, were attached on the surface of the ischemic and normal regions of the left ventricle to record epicardial electrocardiogram.
Reference electrodes were placed in the open incision of the neck. The body temperature of the animal was monitored via a rectal thermometer and maintained at 37-40° C. by adjusting the surface temperature of the surgical table. Regional ischemia (15 min) was induced by ligating the LAD followed by 15 min of reperfusion caused by releasing the ligation. The heart was excised at the end of the experiment and the LAD was re-ligated. The ischemic area was visualized by perfusing the heart with 1% Evans blue in saline and calculated as a percentage of total ventricular weight. Rabbits with ischemic area less than 10% or larger than 25% were excluded from the analysis. Animals were randomly assigned to vehicle and test compound groups. Test compounds were dissolved in 15% NMP, 10% Solutol and 75% de-ionized water (dH2O). Test compounds were given as an iv infusion at a rate targeted to reach plasma concentrations of 1 μM. After 30 min of compound administration the heart was subjected to 15 min of ischemia followed by 15 min of reperfusion.

Q: FC(F)(F)COc1ccc(-c2ccc3onc(OCc4ncccn4)c3c2)cn1 [Example 21, 3-(pyrimidin-2-ylmethoxy)-5-(6-(2,2,2-trifluoroethoxy)pyridin-3-yl)benzo[d]isoxazole] was tested. Which “Rabbit ST Segment (Percent reduction)” value did it give?
A: Its value is 66 Percent reduction.
